# According to patent US20240376085A1 (Janssen Pharmaceutica NV, priority 2021, published 2024):
# Key:
# IL-17A : IL-17RA binding = biological target: T1, IL-17A : IL-17RA binding (Homo sapiens, UniProt Q16552, K93Q); assay: IL-17A(FLAG-tagged):IL-17RA(His-tagged) binding disruption Eu-HTRF assay, Protocol 1; conditions: FLAG-IL-17A 2.5 nM at 2x final concentration; average if tested more than once
# T1 construct: Name: IL-17A-Flag
# Summary of the method: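 IC50 came from a one-site competition fit of the acceptor/donor (665/620 nm) HTRF ratio. His-tagged IL-17RA, Eu-anti-FLAG and D2-anti-His were added after a 1 h rt compound preincubation with FLAG-tagged IL-17A dimer in PBS/0.01% Triton X-100, followed by 2 h at rt before reading.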
# [1] = tested on: IL-17A-induced G-CSF production in human normal keratinocyte (NHK); assay: NHK assay: IL-17A-induced G-CSF production in normal human keratinocytes; type: cell-based; conditions: IL-17A 5 ng/mL, 24 h, average if tested more than once
# Summary of the method: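 IC50 derives from G-CSF in supernatants, quantified by HTRF from a standard curve, with CellTiter-Glo viability compared to DMSO control. Before a 24 h, 37°C culture of normal human keratinocytes at 3000–4000 cells/well, compound dilutions were preincubated 1 h at rt with human IL-17A (5 ng/mL final), with 0.2% DMSO and 5% FBS.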
# T1 sequence (Q16552 with tags, fused parts or gaps K93Q): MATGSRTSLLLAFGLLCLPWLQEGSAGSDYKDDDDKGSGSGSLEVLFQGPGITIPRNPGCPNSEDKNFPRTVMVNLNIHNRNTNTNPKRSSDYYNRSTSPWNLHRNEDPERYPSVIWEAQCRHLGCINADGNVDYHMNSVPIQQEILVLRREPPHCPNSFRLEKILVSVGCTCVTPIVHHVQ
SMILES,IC50 (IL-17A : IL-17RA binding) [µM],IC50 [1] [µM],"IC50 ([1]; Homo sapiens, Keratinocyte) [µM]"
"C[C@@H](NC(=O)CCC(F)(F)F)c1ccc2[nH]c([C@@H](NC(=O)C3CC34CCC4)C3CCC(F)(F)CC3)nc2c1 (stereo partly drawn) [Example 111, N—((S)-(4,4-Difluorocyclohexyl)(5-((R)-1-(4,4,4-trifluorobutanamido)ethyl)-1H-benzo[d]imidazol-2-yl)methyl)spiro[2.3]hexane-1-carboxamide]",> 0.1,,> 0.1
"Cc1c(C(=O)N[C@H](c2nc3cc([C@@H](C)NC(=O)CCC(F)(F)F)ccc3[nH]2)C2CCC(F)(F)CC2)cnn1CCC(F)(F)F [Example 5, N—[(S)-(4,4-Difluorocyclohexyl)-[6-[(1R)-1-(4,4,4-trifluorobutanoylamino)ethyl]-1H-benzimidazol-2-yl]methyl]-5-methyl-1-(3,3,3-trifluoropropyl)pyrazole-4-carboxamide]",> 0.1,,> 0.1
"C[C@@H](NC(=O)CCC(F)(F)F)c1ccc2[nH]c([C@@H](NC(=O)c3ncnn3CC3CC3)C3CCC(F)(F)CC3)nc2c1 [Example 30, 2-(Cyclopropylmethyl)-N—[(S)-(4,4-difluorocyclohexyl)-[6-[(1R)-1-(4,4,4-trifluorobutanoylamino)ethyl]-1H-benzimidazol-2-yl]methyl]-1,2,4-triazole-3-carboxamide]",0.05 to 0.1,,> 0.1
C[C@@H](NC(=O)CCC(F)(F)F)c1ccc2[nH]c([C@@H](NC(=O)c3cnn(CCC(F)(F)F)n3)[C@@H]3CCCC(F)(F)C3)nc2c1 [Example 265],> 0.1,,> 0.1

# More lines, main results first:
IC50 (IL-17A : IL-17RA binding) [µM],SMILES,IC50 [1] [µM],"IC50 ([1]; Homo sapiens, Keratinocyte) [µM]"
> 0.1,"CC(CC(=O)N[C@H](C)c1ccc2nc([C@@H](NC(=O)c3cc(F)ccc3F)C3CCC(F)(F)CC3)[nH]c2c1)C(F)(F)F (single isomer, unassigned) [Example 140, N—((S)-(4,4-Difluorocyclohexyl)(6-((R)-1-((S*)-4,4,4-trifluoro-3-methylbutanamido)ethyl)-1H-benzo[d]imidazol-2-yl)methyl)-2,5-difluorobenzamide]",> 0.1,
0.05 to 0.1,"Cc1nonc1C(=O)N[C@H](c1nc2cc([C@H](NC(=O)CC(C)C(F)(F)F)C3CC3)ccc2[nH]1)[C@@H]1CCCC(F)(F)C1 (single isomer, unassigned) [Example 259, N—((S)-(5-((R)-Cyclopropyl((S*)-4,4,4-trifluoro-3-methylbutanamido)methyl)-1H-benzo[d]imidazol-2-yl)((R)-3,3-difluorocyclohexyl)methyl)-4-methyl-1,2,5-oxadiazole-3-carboxamide]",0.05 to 0.1,
> 0.1,"COCC(NC(=O)CC1CC(F)(F)C1)c1ccc2[nH]c([C@H](COC(C)(C)C(F)(F)F)NC(=O)c3nonc3C3CC3)nc2c1 (single isomer, unassigned) [Example 165, 4-Cyclopropyl-N—((R)-1-(5-((S*)-1-(2-(3,3-difluorocyclobutyl)acetamido)-2-methoxyethyl)-1H-benzo[d]imidazol-2-yl)-2-((1,1,1-trifluoro-2-methylpropan-2-yl)oxy)ethyl)-1,2,5-oxadiazole-3-carboxamide]",,> 0.1
> 0.1,"C[C@@H](NC(=O)CC(C)(C)C)c1ccc2[nH]c([C@@H](NC(=O)c3ccnn3C)C3CCC(F)(F)CC3)nc2c1 [Example 117, N—((S)-(4,4-Difluorocyclohexyl)(5-((R)-1-(3,3-dimethylbutanamido)ethyl)-1H-benzo[d]imidazol-2-yl)methyl)-1-methyl-1H-pyrazole-5-carboxamide]",,> 0.1
> 0.1,"C[C@@H](NC(=O)CC(C(F)(F)F)C(F)(F)F)c1ccc2[nH]c([C@@H](NC(=O)c3ccnn3CC(F)(F)F)C3CCC(F)(F)CC3)nc2c1 [Example 129, N—((S)-(4,4-Difluorocyclohexyl)(5-((R)-1-(4,4,4-trifluoro-3-(trifluoromethyl)butanamido)ethyl)-1H-benzo[d]imidazol-2-yl)methyl)-1-(2,2,2-trifluoroethyl)-1H-pyrazole-5-carboxamide]",,0.05 to 0.1
